Results on twelve compounds are retold here after patent US8895744B2, “Alfa-carboline inhibitors of NPM-ALK, RET, and Bcr-Abl” (Universita' Degli Studi di Milano-Bicocca, priority 2008, dated 2014).

The target of assay [1] is T1, Recombinant ALK kinase (Homo sapiens, UniProt Q9UM73).
T1 construct: made in house; host or cells: Sf9 insect cells (baculovirus)
In words: ALK kinase inhibitory activity, ELISA-based in vitro kinase assay. It is filed as biochemical. The note with it: purified rALK, 0.3 mM ATP, read-out: ALK IC50. In short, it runs like this: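 Sf9-expressed, purified recombinant ALK phosphorylated a plate-coated peptide substrate with 0.3 mM ATP, Mn2+/Mg2+, pH 7.5, 15 min at 30° C, after 10 min inhibitor preincubation. Phosphotyrosine was detected by anti-pTyr ELISA (TMB, A450); IC50 in μM is the concentration giving 50% inhibition relative to control.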
For orientation: ELISA stands for enzyme-linked immunosorbent assay.

Assay [2] deals with T2, Recombinant Ret protein (Homo sapiens, UniProt P07949).
T2 construct: made in house; host or cells: Sf9 cells (baculovirus)
T2 sequence (P07949 29-1114): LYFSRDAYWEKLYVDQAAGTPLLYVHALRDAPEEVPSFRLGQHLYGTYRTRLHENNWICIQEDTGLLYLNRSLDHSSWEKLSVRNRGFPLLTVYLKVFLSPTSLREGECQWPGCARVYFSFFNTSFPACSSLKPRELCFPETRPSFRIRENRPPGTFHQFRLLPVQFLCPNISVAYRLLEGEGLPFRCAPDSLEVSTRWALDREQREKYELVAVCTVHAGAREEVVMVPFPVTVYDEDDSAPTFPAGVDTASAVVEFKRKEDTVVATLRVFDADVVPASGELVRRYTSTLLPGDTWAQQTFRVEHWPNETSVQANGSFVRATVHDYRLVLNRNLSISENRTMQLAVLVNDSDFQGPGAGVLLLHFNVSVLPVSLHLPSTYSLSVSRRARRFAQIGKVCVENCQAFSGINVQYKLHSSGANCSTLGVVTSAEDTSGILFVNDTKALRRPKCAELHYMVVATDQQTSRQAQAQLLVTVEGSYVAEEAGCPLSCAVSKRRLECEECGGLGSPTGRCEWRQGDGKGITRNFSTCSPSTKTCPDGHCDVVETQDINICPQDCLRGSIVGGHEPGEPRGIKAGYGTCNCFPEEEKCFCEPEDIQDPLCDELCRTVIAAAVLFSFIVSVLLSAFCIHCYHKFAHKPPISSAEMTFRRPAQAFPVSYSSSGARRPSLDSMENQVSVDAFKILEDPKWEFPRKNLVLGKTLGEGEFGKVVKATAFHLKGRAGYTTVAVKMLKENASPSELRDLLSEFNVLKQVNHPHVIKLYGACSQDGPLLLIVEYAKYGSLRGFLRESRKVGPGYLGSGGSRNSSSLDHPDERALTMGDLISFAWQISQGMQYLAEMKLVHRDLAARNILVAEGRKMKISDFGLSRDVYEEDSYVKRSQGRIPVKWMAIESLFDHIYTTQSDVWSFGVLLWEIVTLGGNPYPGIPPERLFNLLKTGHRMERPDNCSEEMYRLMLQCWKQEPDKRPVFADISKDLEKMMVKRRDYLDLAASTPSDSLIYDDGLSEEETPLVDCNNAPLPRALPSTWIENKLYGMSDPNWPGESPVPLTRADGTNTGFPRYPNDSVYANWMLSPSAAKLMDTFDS
Kind of assay: RET kinase inhibitory activity, ELISA-based in vitro kinase assay. It is filed as biochemical. The settings on record: purified Ret, 0.3 mM ATP. On the procedure: (§1) Recombinant ALK kinase was expressed in Sf9 insect cells using the pBlueBacHis2C baculovirus vector system and purified using an anion exchange Fast Flow Q-sepharose column (Amersham-Pharmacia Biotech) followed by HiTrap™-nickel affinity column (Amersham-Pharmacia Biotech). Purified ALK protein was used to screen inhibitors in the ELISA-based kinase assay. A Nunc Immuno 96 well plate was incubated overnight at 37° C. with coating solution (125 μL/well) containing ALK peptide substrate ([…]) (SEQ ID NO: 1) at various concentrations in PBS. Wells were then washed with 200 μL of wash buffer (PBS-Tween 0.05%) and left to dry for at least 2 h at 37° C. The kinase reaction was performed in the presence of 50 mM Tris pH 7.5, 5 mM MnCl2, 5 mM MgCl2, 0.3 mM ATP and purified rALK in a total volume of 100 μL/well at 30° C. for 15 min. For inhibitor testing the reaction mix was preincubated with the inhibitor or solvent control for 10 min at room temperature before transferring to the ELISA plate. After the reaction wells were washed 5 times with 200 μL of wash buffer. Phosphorylated peptide was detected using 100 μL/well of a mouse monoclonal anti-phosphotyrosine antibody (clone 4G10 Upstate Biotech Ltd) diluted 1:2000 in PBS+4% BSA. After 30 min incubation at room temperature the antibody was removed and wells were washed as described above. 100 μL of a secondary antibody (anti-mouse IgG, Horseradish Peroxidase linked whole antibody, Amersham Pharmacia Biotech) diluted 1:1000 in PBS+4% BSA was added to each well and the plate was incubated again for 30 min at room temperature before washing as above. The plate was developed using 100 μL/well TMB Substrate Solution (Endogen) and the reaction was stopped by adding an equiv.ual volume of H2SO4 0.36 M. Finally, the absorbance was read at 450 nm using an Ultrospec® 300 spectrophotometer (Amersham-Pharmacia Biotech). The concentration of the test solution showing 50% inhibition as compared with the control was expressed as IC50 (μM).
38. RET Kinase Inhibitory Activity
(§2) Method: ELISA-Based In Vitro Kinase Assay
(§3) Recombinant Ret protein was expressed in Sf9 cells using the pBlueBacHis2C baculovirus expression vector. Ret was purified using an anion exchange Fast Flow Q-sepharose column (Amersham-Pharmacia Biotech) followed by HiTrap™-nickel affinity column (Amersham-Pharmacia Biotech). Purified Ret was used in the ELISA-based kinase assay to screen inhibitors as described above. The kinase reaction was performed in the presence of 50 mM Tris pH 7.5, 1 mM MnCl2, 5 mM MgCl2, 0.3 mM ATP, peptide substrate ([…]) (SEQ ID NO: 1) and purified Ret. The concentration of the test solution showing 50% inhibition as compared with the control was expressed as IC50 (μM).

Assay [3] deals with T3, Recombinant Abl T315I protein (Homo sapiens, UniProt P00519, T315I).
T3 construct: made in house; host or cells: Sf9 cells (baculovirus)
Kind of assay: Abl T315I mutant kinase inhibitory activity, ELISA-based in vitro kinase assay. The note with it: purified Abl T315I, 0.3 mM ATP. The class given is biochemical. On the procedure: as §1
37. Abl T315I Mutant Kinase Inhibitory Activity
as §2
as §3, with “Abl T315I” for “Ret”, “Abl T315I.” for “Ret.”

The subject of assay [4] is NPM/ALK positive SUDHL-1 cells. Kind of assay: Tritiated thymidine uptake cell proliferation assay, SUDHL-1. It is filed as cell-based. The note with it: 3[H]-thymidine uptake, 72 h. On the procedure:
(§4) Inhibition of the proliferation of NPM/ALK positive cells
(§5) Method: Tritiated Thymidine Uptake Cell Proliferation Assay
(§6) The following procedure was used with parent untransformed BaF3 cells, BaF3 cells transformed with the oncogenic fusion protein NPM/ALK, NPM/ALK positive SUDHL-1 cells, ALK-negative U937 cells, NPM/ALK positive KARPAS-299 cells. The parent untransformed BaF3 cells and Alk-negative U937 cells are used as controls. Cells were seeded in U-bottomed 96-well plates at 10 000 cells/well in a volume of 100 μL in supplemented medium. In the case of the parent untransformed BaF3 cells, the medium was supplemented with IL-3. Serial dilutions of inhibitors were added to the appropriate wells and volumes adjusted to 200 μL. Controls were treated with the equivalent volume of vehicle, DMSO, alone. Plates were incubated at 37° C. for 72 h. ^3[H]-thymidine (1 μCi/well) was added for the last 16 h of incubation. Cells were harvested on to paper filters and ^3[H]-thymidine incorporation was measured using a β scintillation counter (1430 MicroBeta, Wallac, Turku, Finland). The 50% inhibitory concentration (IC50) was defined as the concentration of inhibitor, expressed in micromolar, that gave a 50% decrease in ^3[H]-thymidine uptake compared with controls.

Assay [5] concerns parent untransformed BaF3 cells. In words: Tritiated thymidine uptake cell proliferation assay, parental BaF3 (control). The class given is cell-based. The note with it: Mus musculus, 3[H]-thymidine uptake, 72 h, medium with IL-3, read-out: BaF parental IC50. On the procedure:
as §5, §6
as §6, with “protein bcr-abl, Abl-negative” for “protein NPM/ALK, NPM/ALK positive SUDHL-1 cells, ALK-negative”, “cells, or Bcr-abl” for “cells, NPM/ALK”, “positive LAMA-84” for “positive KARPAS-299”, “and Abl-negative” for “and Alk-negative”, “in ^3H-thymidine” for “in ^3[H]-thymidine”
as §6, with “RET-PTC2, or RET-negative 11937” for “NPM/ALK, NPM/ALK positive SUDHL-1 cells, ALK-negative U937 cells, NPM/ALK positive KARPAS-299”, “RET-negative” for “Alk-negative”

Assay [6] deals with T4, BaF3 cells transformed with the oncogenic fusion protein NPM/ALK (Homo sapiens, UniProt Q9UM73).
T4 construct: fused on or other part: P06748 (Nucleophosmin)
T4 sequence (Q9UM73 whole entry, change not shown, the tested form may be a part): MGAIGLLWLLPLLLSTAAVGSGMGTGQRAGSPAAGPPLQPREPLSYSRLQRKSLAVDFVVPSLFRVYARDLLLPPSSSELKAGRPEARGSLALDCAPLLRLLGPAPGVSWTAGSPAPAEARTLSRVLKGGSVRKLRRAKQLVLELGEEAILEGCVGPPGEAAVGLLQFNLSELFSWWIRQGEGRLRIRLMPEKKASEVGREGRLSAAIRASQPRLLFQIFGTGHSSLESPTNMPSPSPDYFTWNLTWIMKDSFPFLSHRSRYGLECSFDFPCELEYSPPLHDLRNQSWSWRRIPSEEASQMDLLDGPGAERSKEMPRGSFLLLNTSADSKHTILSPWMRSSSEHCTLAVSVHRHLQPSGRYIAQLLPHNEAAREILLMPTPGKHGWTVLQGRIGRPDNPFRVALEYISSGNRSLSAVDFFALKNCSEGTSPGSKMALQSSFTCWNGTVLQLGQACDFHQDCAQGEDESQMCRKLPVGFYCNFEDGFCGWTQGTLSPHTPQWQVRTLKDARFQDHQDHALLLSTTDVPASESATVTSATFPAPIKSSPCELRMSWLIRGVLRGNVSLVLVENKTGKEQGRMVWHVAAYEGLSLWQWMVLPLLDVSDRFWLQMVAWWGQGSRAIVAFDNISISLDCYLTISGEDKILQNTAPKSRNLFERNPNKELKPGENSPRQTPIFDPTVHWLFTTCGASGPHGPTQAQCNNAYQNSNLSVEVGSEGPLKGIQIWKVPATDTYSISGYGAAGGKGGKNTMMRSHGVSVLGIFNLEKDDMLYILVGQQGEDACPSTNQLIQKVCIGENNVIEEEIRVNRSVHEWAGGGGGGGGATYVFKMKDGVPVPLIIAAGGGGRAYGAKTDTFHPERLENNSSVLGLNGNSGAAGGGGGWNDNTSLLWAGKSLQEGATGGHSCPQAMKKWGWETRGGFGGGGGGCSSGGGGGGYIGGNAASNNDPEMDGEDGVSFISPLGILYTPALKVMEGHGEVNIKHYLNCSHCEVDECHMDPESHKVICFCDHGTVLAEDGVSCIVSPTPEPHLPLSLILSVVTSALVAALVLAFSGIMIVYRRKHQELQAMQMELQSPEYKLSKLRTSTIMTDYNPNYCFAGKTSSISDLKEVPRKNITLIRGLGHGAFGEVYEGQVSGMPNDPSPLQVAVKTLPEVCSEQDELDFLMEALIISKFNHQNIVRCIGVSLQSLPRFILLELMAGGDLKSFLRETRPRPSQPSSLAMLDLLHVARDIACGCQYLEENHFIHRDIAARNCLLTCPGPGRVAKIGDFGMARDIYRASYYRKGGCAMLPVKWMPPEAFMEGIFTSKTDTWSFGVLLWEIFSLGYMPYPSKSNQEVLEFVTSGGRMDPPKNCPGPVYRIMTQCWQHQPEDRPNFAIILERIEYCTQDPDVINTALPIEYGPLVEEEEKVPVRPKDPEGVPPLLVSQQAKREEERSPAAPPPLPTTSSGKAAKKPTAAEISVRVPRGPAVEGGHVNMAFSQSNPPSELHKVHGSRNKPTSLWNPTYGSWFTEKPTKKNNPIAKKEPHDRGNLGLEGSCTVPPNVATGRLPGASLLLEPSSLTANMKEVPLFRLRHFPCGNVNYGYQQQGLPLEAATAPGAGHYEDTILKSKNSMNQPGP
In words: Tritiated thymidine uptake cell proliferation assay, BaF3 NPM/ALK. The class given is cell-based. The settings on record: 3[H]-thymidine uptake, 72 h; read-out: BaF NPM/ALK IC50. On the procedure:
as §4, §5, §6

T1 sequence (Q9UM73 19-1620): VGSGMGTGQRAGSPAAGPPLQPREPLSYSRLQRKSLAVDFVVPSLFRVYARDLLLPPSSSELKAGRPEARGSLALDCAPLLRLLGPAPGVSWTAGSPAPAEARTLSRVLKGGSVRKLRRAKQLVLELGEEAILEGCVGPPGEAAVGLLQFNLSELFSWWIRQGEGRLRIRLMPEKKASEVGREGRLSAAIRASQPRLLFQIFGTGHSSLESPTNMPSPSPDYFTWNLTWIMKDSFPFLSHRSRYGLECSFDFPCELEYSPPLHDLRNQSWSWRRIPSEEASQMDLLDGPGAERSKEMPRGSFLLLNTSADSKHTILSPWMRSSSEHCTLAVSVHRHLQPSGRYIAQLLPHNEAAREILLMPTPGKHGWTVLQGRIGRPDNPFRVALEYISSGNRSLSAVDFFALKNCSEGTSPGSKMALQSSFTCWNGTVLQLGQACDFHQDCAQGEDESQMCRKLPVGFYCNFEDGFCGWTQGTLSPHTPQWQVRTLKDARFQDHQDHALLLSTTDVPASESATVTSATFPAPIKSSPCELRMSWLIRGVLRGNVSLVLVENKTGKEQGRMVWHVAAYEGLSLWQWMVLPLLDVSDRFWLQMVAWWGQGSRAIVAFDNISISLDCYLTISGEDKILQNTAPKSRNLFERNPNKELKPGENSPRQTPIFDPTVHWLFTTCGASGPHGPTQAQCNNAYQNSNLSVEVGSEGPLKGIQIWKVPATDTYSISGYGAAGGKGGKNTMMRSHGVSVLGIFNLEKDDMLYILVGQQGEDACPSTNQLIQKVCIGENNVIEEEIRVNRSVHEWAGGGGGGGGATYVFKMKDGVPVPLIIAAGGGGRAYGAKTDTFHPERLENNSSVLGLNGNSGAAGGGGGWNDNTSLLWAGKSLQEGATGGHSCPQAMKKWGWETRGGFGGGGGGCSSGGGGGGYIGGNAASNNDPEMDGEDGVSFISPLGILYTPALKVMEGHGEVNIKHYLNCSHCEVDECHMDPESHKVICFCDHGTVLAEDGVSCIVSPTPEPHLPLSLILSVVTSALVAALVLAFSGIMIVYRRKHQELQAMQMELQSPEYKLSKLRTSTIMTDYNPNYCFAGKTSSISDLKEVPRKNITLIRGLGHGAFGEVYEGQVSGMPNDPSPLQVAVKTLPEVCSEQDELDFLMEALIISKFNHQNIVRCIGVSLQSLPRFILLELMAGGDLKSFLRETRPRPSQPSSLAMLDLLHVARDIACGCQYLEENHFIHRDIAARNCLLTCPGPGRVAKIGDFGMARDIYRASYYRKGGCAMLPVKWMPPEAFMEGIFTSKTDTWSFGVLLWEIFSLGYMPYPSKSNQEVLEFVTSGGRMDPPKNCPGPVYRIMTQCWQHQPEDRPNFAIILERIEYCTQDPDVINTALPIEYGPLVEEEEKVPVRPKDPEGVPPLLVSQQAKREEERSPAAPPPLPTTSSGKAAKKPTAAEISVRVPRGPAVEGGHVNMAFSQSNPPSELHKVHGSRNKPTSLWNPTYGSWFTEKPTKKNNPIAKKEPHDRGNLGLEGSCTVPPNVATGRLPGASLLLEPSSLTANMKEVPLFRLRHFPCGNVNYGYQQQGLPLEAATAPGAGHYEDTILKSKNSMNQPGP

The IC50 is the point on the concentration scale where inhibition reaches its midpoint. As for `O=c1[nH]c(-c2ccc3[nH]c4ncccc4c3c2)cs1` [R221, 4-(9H-pyrido[2,3-b]indol-6-yl)thiazol-2(3H)-one], the figures for the IC50 in assay [1], in assay [2] and in assay [3] were 19 ± 1.8 µM, 82 ± 3.2 µM and 53 ± 16 µM, respectively.

Consider `O=Cc1ccc2[nH]c3ncc(Cl)cc3c2c1` [R267], for which the IC50 in assay [2] was found to be 34 ± 27 µM; in assay [3], 20 ± 0.67 µM; in assay [4], 9.4 µM; in assay [5], 17 µM.

For `O=C(CSc1ccccn1)c1ccc2[nH]c3ncc(Cl)cc3c2c1` [R272, 1-(3-Chloro-9H-pyrido[2,3-b]indol-6-yl)-2-(pyridin-2-ylsulfanyl)ethanone], the IC50 is 19 µM in assay [2], 41 µM in assay [3], greater than 25 µM in assay [4] and 2 µM in assay [5]. The GI50 in assay [6] is 2.5 µM.

Consider `O=C(CSc1nc2ccccc2s1)c1ccc2[nH]c3ncc(Cl)cc3c2c1` [R273, 2-(Benzothiazol-2-ylsulfanyl)-1-(3-chloro-9H-pyrido[2,3-b]indol-6-yl)ethanone], for which the 50% inhibitory concentration (IC50) in assay [2] is 2 µM; in assay [3], 4.4 µM; in assay [4], greater than 25 µM; in assay [5], 14 µM. For the same compound, the GI50 in assay [6] worked out at 19 µM.

As to `O=C(CSc1nc2ccccc2[nH]1)c1ccc2[nH]c3ncc(Cl)cc3c2c1` [R274, 2-(1H-Benzoimidazol-2-ylsulfanyl)-1-(3-chloro-9H-pyrido[2,3-b]indol-6-yl)ethanone], the 50% inhibitory concentration (IC50) in assay [2] turned out to be 14 µM; in assay [3] it was 19 µM; in assay [4], 0.6 µM; in assay [5], 0.9 µM. Besides, the GI50 in assay [6] is 1 µM.

On to `Oc1cnc2[nH]c3ccc(CCc4ccccc4)cc3c2c1` [R276], for which the IC50 is 0.5 ± 0.1 µM in assay [1], 1 µM in assay [2] and greater than 25 µM in assay [5]. Further, in assay [6], the GI50 is greater than 25 µM.

With `O=C(CSc1cccc(Br)c1)c1ccc2[nH]c3ncc(Cl)cc3c2c1` [R279, 2-(3-Bromophenylsulfanyl)-1-(3-chloro-9H-pyrido[2,3-b]indol-6-yl)ethanone], the results for the 50% inhibitory concentration (IC50) in assay [2], in assay [3] and in assay [5] were 3.6 µM, greater than 100 µM and greater than 50 µM, respectively. Moreover, the GI50 in assay [6] was greater than 50 µM.

As to `O=C(CSCCOc1ccccc1)c1ccc2[nH]c3ncc(Cl)cc3c2c1` [R280, 1-(3-Chloro-9H-pyrido[2,3-b]indol-6-yl)-2-(2-phenoxyethylsulfanyl)ethanone], the IC50 in assay [2] worked out at 3.6 µM; in assay [3], 33 µM; in assay [5], 37 µM. In assay [6], the GI50 was greater than 50 µM.

Take `O=C(CSC1=NCCS1)c1ccc2[nH]c3ncc(Cl)cc3c2c1` [R282, 1-(3-chloro-9H-pyrido[2,3-b]indol-6-yl)-2-(4,5-dihydrothiazol-2-ylsulfanyl)éthanone]: the IC50 in assay [2] was 9.5 µM; in assay [3], 36 µM; in assay [4], 0.7 µM; in assay [5] it was 32 µM. Also, the GI50 in assay [6] came to 14 µM.

For `CCN(CC)CCSCC(=O)c1ccc2[nH]c3ncc(Cl)cc3c2c1` [R283, 1-(3-Chloro-9H-pyrido[2,3-b]indol-6-yl)-2-(N,N-diethylaminoethylsulfanyl)ethanone], the concentration for half-maximal inhibition (IC50) in assay [2] was found to be 5.7 µM; in assay [3], 48 µM; in assay [4], 0.2 ± 0.02 µM; in assay [5], 3.6 ± 1.8 µM. The GI50 in assay [6] is 0.5 ± 0.2 µM.

With `CN(C)CCSCC(=O)c1ccc2[nH]c3ncc(Cl)cc3c2c1` [R284, 1-(3-Chloro-9H-pyrido[2,3-b]indol-6-yl)-2-(2,2-dimethylaminoethylsulfanyl)ethanone], the concentration for half-maximal inhibition (IC50) in assay [1] was 36 ± 14 µM; in assay [2], 41 µM; in assay [3] it was greater than 100 µM.

For `C(=C\c1cnc2[nH]c3ccc(-c4ccc(N5CCOCC5)cn4)cc3c2c1)/c1ccccc1` [R307, 6-(5-morpholin-4-yl-pyridin-2-yl)-3-(2′-phenylethenyl)-9H-pyrido[2,3-b]indole], the IC50 was 0.5 ± 0.1 µM in assay [1], greater than 100 µM in assay [2], 3.1 ± 0.1 µM in assay [3] and greater than 100 µM in assay [5]. For the same compound, the GI50 in assay [6] came out at 40 µM.
